From patent US11939318B2, “LPA receptor antagonists and uses thereof” (Gilead Sciences, Inc., priority 2021, dated 2024)

Biological target: T1, human LPAR1 (Homo sapiens, UniProt Q92633)
T1 construct: host or cells: CHO-K1
Assay: LPAR1 intracellular calcium mobilization assay (antagonist mode, CHO-K1 EDG2 cells, FLIPR)
Format: cell-based
Conditions: antagonist activity; CHO-K1 EDG2 cells expressing human LPAR1; 60 min pre-incubation at 37° C., then LPA 18:2 at EC80 concentration (100 nM); test compound 0.5 nM to 10 μM; read-out: LPAR1 (EC50; nM)
Method: In vitro LPAR1 activity was measured in an intracellular calcium mobilization assay.
CHO-K1 EDG2 cells (DiscoverX cat #93-0644C2) expressing human LPAR1 (NM_001401.3) were seeded in a total volume of 25 μL of Dulbecco's Modification of Eagle's Medium (DMEM) with 10% Fetal Bovine Serum, 1× PenStrepGlutamine, 300 μg/ml Hygromycin, and 800 μg/ml G418 into 384-well tissue culture plate (Grenier #781091) at 15,000 cells/well and incubated at 37° C. overnight. Prior to testing, 25 μL Calcium Loading Dye Component A (FLIPR Calcium 6 Assay Kit Molecular Device #R8190) and 2.5 mM Probenecid (Invitrogen #P36400, prepared fresh) in Hank's Balanced Salt Solution (Corning #21-023-CV), 20 mM HEPES (Corning #25-060-CI), 0.1% Bovine Serum Albumin (Sigma-Aldrich #A7906-500G) was add to the cells for 60 minutes at 37° C.
Agonist dose curves of LPA 18:2 (Avanti Polar Lipids cat #857138, 0.5 nM to 10 μM) were recorded to determine the LPA 18:2 EC80 for subsequent antagonist assays. For agonist dose curves, cells were removed from the incubator 2 hours after dye loading and transferred to the FLIPR Tetra instrument (Molecular Devices, San Jose, CA). Calcium mobilization was monitored for […] and 10 μL 6× LPA in HBSS/20 mM Hepes/0.1% bovine serum albumin (BSA) was added to the cells 5 seconds into the assay.
To determine the LPAR1 antagonist activity of test compounds, cells were pre-incubated with test compound at a dose range of 0.5 nM to 10 μM, followed by LPA at EC80 concentration (100 nM). After dye loading, cells were removed from the incubator and 0.3 μL of 200X antagonist was added. Cells were incubated for 60 minutes at 37° C. Antagonist activity was measured on a FLIPR Tetra. Calcium mobilization was monitored for 3.5 minutes and 10 μL 6X EC80 LPA in HBSS, 20 mM HEPES, and 0.1% BSA was added to the cells 5 seconds into the assay. Signal amplitude (Maximum minus minimum) values were plotted against log10 of antagonist concentration using Dose Response Tool (Gilead Sciences Inc.) to determine EC50.
The compound numbers correspond to the compound numbers in Examples 1 to13.

T1 sequence (Q92633 whole entry): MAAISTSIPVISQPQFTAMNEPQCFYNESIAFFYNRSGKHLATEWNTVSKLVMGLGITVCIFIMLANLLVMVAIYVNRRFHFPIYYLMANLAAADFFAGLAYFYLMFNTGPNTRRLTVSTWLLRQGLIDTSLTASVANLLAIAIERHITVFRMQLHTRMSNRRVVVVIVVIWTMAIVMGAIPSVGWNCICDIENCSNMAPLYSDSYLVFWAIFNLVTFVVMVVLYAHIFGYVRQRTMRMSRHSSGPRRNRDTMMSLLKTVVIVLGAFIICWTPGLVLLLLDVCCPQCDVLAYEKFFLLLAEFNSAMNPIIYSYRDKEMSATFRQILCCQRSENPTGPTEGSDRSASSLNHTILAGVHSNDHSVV

| IC50 | SMILES |
| --- | --- |
| 345 nM | C[C@@H](OC(=O)Nc1c(-c2ccc(NC(=O)C(F)(F)F)cn2)nnn1C)c1cccc(F)c1 [Compound 1, (R)-1-(3-fluorophenyl)ethyl (1-methyl-4-(5-(2,2,2-trifluoroacetamido)pyridin-2-yl)-1H-1,2,3-triazol-5-yl)carbamate] |
| 37000 nM | CC(=O)Nc1ccc(-c2nnn(C)c2NC(=O)O[C@H](CF)c2cccc(F)c2)nc1C [Compound 2, (S)-2-fluoro-1-(3-fluorophenyl)ethyl (4-(5-acetamido-6-methylpyridin-2-yl)-1-methyl-1H-1,2,3-triazol-5-yl)carbamate] |
| 2770 nM | C[C@@H](OC(=O)Nc1c(-c2ccc(NC(=O)C3(O)CC3)cn2)nnn1C)c1cccnc1Cl [Compound 3, (R)-1-(2-chloropyridin-3-yl)ethyl (4-(5-(1-hydroxycyclopropane-1-carboxamido)pyridin-2-yl)-1-methyl-1H-1,2,3-triazol-5-yl)carbamate] |
| 1260 nM | COC1(C(=O)Nc2ccc(-c3nnn(C)c3NC(=O)O[C@H](C)c3cccnc3Cl)nc2)CC1 [Compound 4, (R)-1-(2-chloropyridin-3-yl)ethyl (4-(5-(1-methoxycyclopropane-1-carboxamido)pyridin-2-yl)-1-methyl-1H-1,2,3-triazol-5-yl)carbamate] |
| 186 nM | C[C@@H](OC(=O)Nc1c(-c2ccc(NC(=O)C3(C#N)CC3)c(Cl)n2)nnn1C)c1cc(F)cnc1F [Compound 5, (R)-1-(2,5-difluoropyridin-3-yl)ethyl (4-(6-chloro-5-(1-cyanocyclopropane-1-carboxamido)pyridin-2-yl)-1-methyl-1H-1,2,3-triazol-5-yl)carbamate] |
| 176 nM | C[C@@H](OC(=O)Nc1c(-c2ccc(NC(=O)c3ccc(C4CC4)nc3)cn2)nnn1C)c1cc(F)cnc1F [Compound 6, (R)-1-(2,5-difluoropyridin-3-yl)ethyl (4-(5-(6-cyclopropylnicotinamido)pyridin-2-yl)-1-methyl-1H-1,2,3-triazol-5-yl)carbamate] |
| 261 nM | Cc1nc(-c2nnn(C)c2NC(=O)O[C@H](C)c2cc(F)cnc2F)ccc1NC(=O)c1cnc(C2CC2)o1 [Compound 7, (R)-1-(2,5-difluoropyridin-3-yl)ethyl (4-(5-(2-cyclopropyloxazole-5-carboxamido)-6-methylpyridin-2-yl)-1-methyl-1H-1,2,3-triazol-5-yl)carbamate] |
| 22 nM | C[C@@H](OC(=O)Nc1c(-c2ccc(NC(=O)c3cnc(-c4cccc(Cl)c4)nc3)cn2)nnn1C)c1cc(F)cnc1F [Compound 8, (R)-1-(2,5-difluoropyridin-3-yl)ethyl (4-(5-(2-(3-chlorophenyl)pyrimidine-5-carboxamido)pyridin-2-yl)-1-methyl-1H-1,2,3-triazol-5-yl)carbamate] |
| 34 nM | Cc1nc(-c2nnn(C)c2NC(=O)O[C@H](C)c2cc(F)cnc2F)ccc1NC(=O)C1(CN)CC(F)(F)C1 [Compound 9, (R)-1-(2,5-difluoropyridin-3-yl)ethyl (4-(5-(1-(aminomethyl)-3,3-difluorocyclobutane-1-carboxamido)-6-methylpyridin-2-yl)-1-methyl-1H-1,2,3-triazol-5-yl)carbamate] |
| 13 nM | C[C@@H](OC(=O)Nc1c(-c2ccc(NC(=O)C34CC(c5ccccc5)(C3)C4)cn2)nnn1C)c1cc(F)cnc1F [Compound 10, (R)-1-(2,5-difluoropyridin-3-yl)ethyl (1-methyl-4-(5-(3-phenylbicyclo[1.1.1]pentane-1-carboxamido)pvidin-2-yl)-1H-1,2,3-triazol-5-yl)carbamate] |
| 365 nM | C[C@@H](OC(=O)Nc1c(-c2ccc(NC(=O)c3ccc(C45CC(C4)C5)cc3)cn2)nnn1C)c1cc(F)cnc1F [Compound 11, (R)-1-(2,5-difluoropyridin-3-yl)ethyl (4-(5-(4-(bicyclo[1.1.1]pentan-1-yl)benzamido)pyridin-2-14)-1-methyl-1H-1,2,3-triazol-5-yl)carbamate] |
| 2050 nM | CC(=O)Nc1ccc(-c2nnn(C)c2NC(=O)O[C@H](C)c2cc(F)cnc2F)nc1 [Compound 12, (R)-1-(2,5-difluoropyridin-3-yl)ethyl (4-(5-acetamidopyridin-2-yl)-1-methyl-1H-1,2,3-triazol-5-yl)carbamate] |
| 152 nM | C[C@@H](OC(=O)Nc1c(-c2ccc(NC(=O)C34CC(OS(C)(=O)=O)(C3)C4)cn2)nnn1C)c1cccnc1Cl [Compound 13, (R)-3-((6-(5-(((1-(2-chloropyridin-3-yl)ethoxy)carbonyl)amino)-1-methyl-1H-1,2,3-triazol-4-yl)pyridin-3-yl)carbamoyl)bicyclo[1.1.1]pentan-1-yl methanesulfonate] |
